According to patent publication US10526336B2, “Fused heteroaryl derivatives as orexin receptor antagonists” (Merck Sharp & Dohme Corp., priority 2014, dated 2020):
pIC50: −log10 of the molar value.

Molecular target: human orexin-2 receptor (Homo sapiens (Human), UniProt O43614)
Test: FLIPR Ca2+ Flux Assay, orexin-2 receptor antagonism in CHO cells
Type: cell-based
Conditions: CHO cells expressing the human orexin-2 receptor; agonist 70 pM Ala-6,12 orexin-A; read-out: hOX2 FLIPR IC50
Experimental: The utility of the compounds in accordance with the present invention as orexin receptor OX1R and/or OX2R antagonists may be readily determined without undue experimentation by methodology well known in the art, including the “FLIPR Ca^2+ Flux Assay” (Okumura et al., Biochem. Biophys. Res. Comm. 280:976-981, 2001). In a typical experiment the OX1 and OX2 receptor antagonistic activity of the compounds of the present invention was determined in accordance with the following experimental method. For intracellular calcium measurements, Chinese hamster ovary (CHO) cells expressing the rat orexin-1 receptor or the human orexin-2 receptor, are grown in Iscove's modified DMEM containing 2 mM L-glutamine, […], 1% hypoxanthine-thymidine supplement, 100 U/ml penicillin, 100 μg/ml streptomycin and 10% heat-inactivated fetal calf serum (FCS). The cells are seeded at 20,000 cells/well into Becton-Dickinson black 384-well clear bottom sterile plates coated with poly-D-lysine. All reagents are from GIBCO-Invitrogen Corp. The seeded plates are incubated overnight at 37° C. and 5% CO2. Ala-6,12 human orexin-A as the agonist is prepared as a 1 mM stock solution in 1% bovine serum albumin (BSA) and diluted in assay buffer (HBSS containing 20 mM HEPES, 0.1% BSA and 2.5 mM probenecid, pH7.4) for use in the assay at a final concentration of 70 pM. Test compounds are prepared as 10 mM stock solution in DMSO, then diluted in 384-well plates, first in DMSO, then assay buffer. On the day of the assay, cells are washed 3 times with 100 μl assay buffer and then incubated for 60 min (37° C., 5% CO2) in 60 μl assay buffer containing […] Fluo-4AM ester, 0.02% pluronic acid, and 1% BSA. The dye loading solution is then aspirated and cells are washed 3 times with 100 μl assay buffer. 30 μl of that same buffer is left in each well. Within the Fluorescent Imaging Plate Reader (FLIPR, Molecular Devices), test compounds are added to the plate in a volume of 25 μl, incubated for 5 min and finally 25 μl of agonist is added. Fluorescence is measured for each well at 1 second intervals for 5 minutes and the height of each fluorescence peak is compared to the height of the fluorescence peak induced by 70 pM Ala-6,12 orexin-A with buffer in place of antagonist. For each antagonist, IC50 value (the concentration of compound needed to inhibit 50% of the agonist response) is determined. Alternatively, compound potency can be assessed by a radioligand binding assay (described in Bergman et. al. Bioorg. Med. Chem. Lett. 2008, 18, 1425-1430) in which the inhibition constant (Ki) is determined in membranes prepared from CHO cells expressing either the OX1 or OX2 receptor. The intrinsic orexin receptor antagonist activity of a compound which may be used in the present invention may be determined by these assays.

Sequence of human orexin-2 receptor (O43614 whole entry): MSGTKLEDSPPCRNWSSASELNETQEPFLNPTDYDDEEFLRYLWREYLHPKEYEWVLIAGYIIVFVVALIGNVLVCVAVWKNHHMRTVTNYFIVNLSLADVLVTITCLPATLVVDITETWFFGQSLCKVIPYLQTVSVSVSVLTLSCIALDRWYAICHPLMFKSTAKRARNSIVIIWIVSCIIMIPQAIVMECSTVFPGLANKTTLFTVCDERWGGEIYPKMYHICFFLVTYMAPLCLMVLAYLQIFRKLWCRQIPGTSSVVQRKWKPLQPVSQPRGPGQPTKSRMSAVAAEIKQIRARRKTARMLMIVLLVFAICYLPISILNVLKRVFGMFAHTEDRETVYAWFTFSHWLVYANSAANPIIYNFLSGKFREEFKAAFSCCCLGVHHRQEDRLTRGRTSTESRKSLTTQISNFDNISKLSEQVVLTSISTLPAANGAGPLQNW

Compound | pIC50
C[C@@H]1CC[C@@H](Oc2nccn3c(C(F)F)cnc23)CN1C(=O)c1nccnc1-n1cccn1 [Example 46, (3-(1H-pyrazol-1-yl)pyrazin-2-yl)((2R,5R)-5-((3-(difluoromethyl)imidazo[1,2-α]pyrazin-8-yl)oxy)-2-methylpiperidin-1-yl)methanone] | 7.21
C[C@@H]1CC[C@@H](Oc2nccn3c(C(F)F)cnc23)CN1C(=O)c1nccnc1-c1ccccn1 [Example 47, ((2R,5R)-5-((3-(difluoromethyl)imidazo[1,2-α]pyrazin-8-yl)oxy)-2-methylpiperidin-1-yl)(3-(pyridin-2-yl)pyrazin-2-yl)methanone] | 7.19
COC(=O)c1ccccc1C(=O)N1C[C@H](Oc2nccn3c(C(F)F)cnc23)CC[C@H]1C [Example 48, methyl 2-((2R,5R)-5-((3-(difluoromethyl)imidazo[1,2-α]pyrazin-8-yl)oxy)-2-methylpiperidine-1-carbonyl)benzoate] | 7.60
C[C@@H]1CC[C@@H](Oc2nccn3c(C(F)F)cnc23)CN1C(=O)c1ncccc1-c1ccccc1 [Example 49, ((2R,5R)-5-((3-(difluoromethyl)imidazo[1,2-α]pyrazin-8-yl)oxy)-2-methylpiperidin-1-yl)(3-phenylpyridin-2-yl)methanone] | 7.29
C[C@@H]1CC[C@@H](Oc2nccn3c(C(F)F)cnc23)CN1C(=O)c1cccnc1OCC(F)(F)F [Example 50, ((2R,5R)-5-((3-(difluoromethyl)imidazo[1,2-α]pyrazin-8-yl)oxy)-2-methylpiperidin-1-yl)(2-(2,2,2-trifluoroethoxy)pyridin-3-yl)methanone] | 7.58
C[C@@H]1CC[C@@H](Oc2nccn3c(C(F)F)cnc23)CN1C(=O)c1cccnc1OCC(F)F [Example 51, (2-(2,2-difluoroethoxy)pyridin-3-yl)((2R,5R)-5-((3-(difluoromethyl)imidazo[1,2-α]pyrazin-8-yl)oxy)-2-methylpiperidin-1-yl) methanone] | 7.50
C[C@@H]1CC[C@@H](Oc2nccn3c(C(F)F)cnc23)CN1C(=O)c1cccnc1-n1cccn1 [Example 52, (2-(1H-pyrazol-1-yl)pyridin-3-yl)((2R,5R)-5-((3-(difluoromethyl)imidazo[1,2-α]pyrazin-8-yl)oxy)-2-methylpiperidin-1-yl)methanone] | 7.80
C[C@@H]1CC[C@@H](Oc2nccn3c(C(F)F)cnc23)CN1C(=O)c1ccccc1-c1cnccn1 [Example 53, ((2R,5R)-5-((3-(difluoromethyl)imidazo[1,2-α]pyrazin-8-yl)oxy)-2-methylpiperidin-1-yl)(2-(pyrazin-2-yl)phenyl)methanone] | 7.67
C[C@@H]1CC[C@@H](Oc2nccn3c(C(F)F)cnc23)CN1C(=O)c1ccccc1-c1ncccn1 [Example 54, ((2R,5R)-5-((3-(difluoromethyl)imidazo[1,2-a]pyrazin-8-yl)oxy)-2-methylpiperidin-1-yl)(2-(pyrimidin-2-yl)phenyl)methanone] | 7.62
C[C@@H]1CC[C@@H](Oc2nccn3c(C(F)F)cnc23)CN1C(=O)c1cscc1-c1ncccn1 [Example 55, ((2R,5R)-5-((3-(difluoromethyl)imidazo [1,2-α]pyrazin-8-yl)oxy)-2-methylpiperidin-1-yl)(4-(pyrimidin-2-yl)thiophen-3-yl)methanone] | 7.35
C[C@@H]1CC[C@@H](Oc2nccn3c(C(F)F)cnc23)CN1C(=O)c1ccsc1-c1ncccn1 [Example 56, ((2R,5R)-5-((3 (difluoromethyl)imidazo [1,2-α]pyrazin-8-yl)oxy)-2-methylpiperidin-1-yl)(2-(pyrimidin-2-yl)thiophen-3-yl)methanone] | 7.27
C[C@@H]1CC[C@@H](Oc2nccn3c(C(F)(F)F)cnc23)CN1C(=O)c1ccccc1-n1nccn1 [Example 57] | 7.88
C[C@@H]1CC[C@@H](Oc2nccn3c(C(F)(F)F)cnc23)CN1C(=O)c1ccsc1-n1nccn1 [Example 58, (2-(2H-1,2,3-triazol-2-yl)thiophen-3-yl)((2R,5R)-2-methyl-5-((3-(trifluoromethyl)imidazo[1,2-a]pyrazin-8-yl)oxy)piperidin-1-yl)methanone] | 7.69
C[C@@H]1CC[C@@H](Oc2nccn3c(C(F)(F)F)cnc23)CN1C(=O)c1ccccc1C1(C#N)CC1 [Example 59, 1-(2-((2R,5R)-2-methyl-5-((3-(trifluoromethyl)imidazo [1,2-α]pyrazin-8-yl)oxy)piperidine-1-carbonyl)phenyl) cyclopropanecarbonitrile] | 7.89
C[C@@H]1CC[C@@H](Oc2nccn3c(C(F)(F)F)cnc23)CN1C(=O)c1ccccc1-n1ncnn1 [Example 60, (2-(2H-tetrazol-2-yl)phenyl)((2R,5R)-2-methyl-5-((3-(trifluoromethyl)imidazo [1,2-α]pyrazin-8-yl)oxy)piperidin-1-yl)methanone] | 7.72
C[C@@H]1CC[C@@H](Oc2nccn3c(C(F)(F)F)cnc23)CN1C(=O)c1ccccc1CS(C)(=O)=O [Example 61, ((2R,5R)-2-methyl-5-((3-(trifluoromethyl)imidazo [1,2-α]pyrazin-8-yl)oxy)piperidin-1-yl)(2-((methylsulfonyl)methyl)phenyl)methanone] | 6.77
C[C@@H]1CC[C@@H](Oc2nccn3c(C(F)(F)F)cnc23)CN1C(=O)c1ncccc1-c1ccccc1 [Example 62, ((2R,5R)-2-methyl-5-((3-(trifluoromethyl)imidazo [1,2-α]pyrazin-8-yl)oxy)piperidin-1-yl)(3-phenylpyridin-2-yl)methanone] | 7.33
C[C@@H]1CC[C@@H](Oc2nccn3c(C(F)(F)F)cnc23)CN1C(=O)c1cccnc1OCC(F)(F)F [Example 63, ((2R,5R)-2-methyl-5-((3-(trifluoromethyl)imidazo [1,2-α]pyrazin-8-yl)oxy)piperidin-1-yl) (2-(2,2,2-trifluoroethoxy)pyridin-3-yl)methanone] | 7.55
C[C@@H]1CC[C@@H](Oc2nccn3c(C(F)(F)F)cnc23)CN1C(=O)c1cccnc1OCC(F)F [Example 64, (2-(2,2-difluoroethoxy)pyridin-3-yl)((2R,5R)-2-methyl-5-((3-(trifluoromethyl)imidazo [1,2-α]pyrazin-8-yl)oxy)piperidin-1-yl)methanone] | 7.76
C[C@@H]1CC[C@@H](Oc2nccn3c(C(F)(F)F)cnc23)CN1C(=O)c1cccnc1-n1cccn1 [Example 65, (2-(1H-pyrazol-1-yl)pyridin-3-yl) ((2R,5R)-2-methyl-5-((3-(trifluoromethyl)imidazo [1,2-α]pyrazin-8-yl)oxy)piperidin-1-yl)methanone] | 7.62
C[C@@H]1CC[C@@H](Oc2nccn3c(C(F)(F)F)cnc23)CN1C(=O)c1ccccc1-c1ncccn1 [Example 66, ((2R,5R)-2-methyl-5-((3-(trifluoromethyl)imidazo[1,2-a]pyrazin-8-yl)oxy)piperidin-1-yl)(2-(pyrimidin-2-yl)phenyl)methanone] | 7.83
C[C@@H]1CC[C@@H](Oc2nccn3c(C(O)C(F)F)cnc23)CN1C(=O)c1ccccc1-n1nccn1 (stereo partly drawn) [Example 67, (2-(2H-1,2,3-triazol-2-yl)phenyl)((2R,5R)-5-((3-(2,2-difluoro-1-hydroxyethyl)imidazo[1,2-a]pyrazin-8-yl)oxy)-2-methylpiperidin-1-yl)methanone] | 6.74
